Data as given in publication PMC9558510 (Cancers, 2022).

Legend:
[1] = Empirical Bayesian estimates of serum AUCτ and Cmin from serum samples with existing popPK models; conditions: steady state, 150 mg q12h dabrafenib
Procedure: For each compound, a popPK model developed by Balakirouchenane et al. was assessed regarding its suitability to create EBE using Monolix 2021R1 (Lixoft SAS, Antony, Fance). […] The predictive performance of the models was estimated by calculating the prediction error (PE), mean prediction error (MPE), mean absolute prediction error (MAPE), and mean relative deviation (MRD):(1) PEi[%]=Cpredicted,i−Cobserved,i/Cobserved,i·100 (2) MPE[%]=1/n∑i=1nPEi (3) MAPE[%]=1/n∑i=1n|PEi| (4) MRD=10^x;x=1/n∑i=1n(log10[Cpredicted,i]−log10[Cobserved,i])^2
Estimates for AUCτ were generated for every occasion for the standard doses (150 mg q12h for dabrafenib, 2 mg q24h for trametinib). In addition, the individual predicted Cmin at a steady state was generated since not all patients contributed trough samples. The same estimates were used in the logistic regression model.

[2] = Observed steady-state serum concentrations (LC-MS/MS) in melanoma patients; format: in vivo, human
Procedure: Serum samples were collected regularly during each routine outpatient visit from study enrollment until January 2022 or until treatment discontinuation. If possible, blood sampling was performed before the next drug administration, but any time interval between the last administration and blood withdrawal was accepted. The steady-state was assumed after continuous dosing for fourteen days for both compounds.
Hydroxy-dabrafenib concentrations were analyzed using a different previously published LC-MS/MS method with an LLOQ of 10 ng/mL [37]. […] Hydroxy-dabrafenib was not quantified in capillary blood samples as the methodology was not available at the time of analysis. All the methods have been validated according to the guidelines of the U.S. Food and Drug Administration and/or the European Medicines Agency.
(§1) Data were collected and processed using Microsoft Excel 2016 Version 16.0 (Microsoft Corporation, Redmond, WA, USA). Statistical calculations and visualization of results were performed with R Studio Version 1.2.5042 (RStudio Incorporation, Boston, MA, USA) running R version 4.0.5 (R Foundation for Statistical Computing, Vienna, Austria, 2020). For further analysis, serum concentrations were divided into groups according to time interval post-dose as follows: 0–5 h, 5–10 h, 10–14 h, and >14 h for (hydroxy-)dabrafenib and 0–10 h, 10–20 h, 20–30 h, and >30 h for trametinib. Concentrations < LLOQ were excluded from further statistical analyses. The concentrations of the same patient at the same dosage and within the same post-dose group were summarized into an individual mean serum concentration for descriptive statistical analysis to account for potential bias caused by the unbalanced number of samples per patient. […] The Wilcoxon […] test was used for unpaired samples. The correlations between individual PK parameters sampled from the conditional distribution during the generation of EBE (methods for estimation see below) and age, sex, body mass index (BMI), and co-medication were analyzed using analysis of variance (ANOVA) and Spearman’s correlation coefficient. Logistic regression was used to compare the risk of treatment discontinuations or dose reductions (dabrafenib dose reduction or discontinuation, trametinib dose reduction or discontinuation, or any dose reduction or discontinuation) with the corresponding predicted trough concentrations and area under the curve of a dosing interval (AUCτ) of dabrafenib, hydroxy-dabrafenib, and trametinib as well as with the composite predicted dabrafenib/hydroxy-dabrafenib trough concentration and with composite dabrafenib/hydroxy-dabrafenib AUCτ assuming standard dosing. The Hosmer–Lemeshow test was used to evaluate the goodness of fit for our logistic regression model. Due to the explorative nature of the study, p-values obtained from multiple comparisons were not corrected for multiple testing. A p-value < 0.05 was considered statistically significant.

[3] = Logistic regression of dose reduction/discontinuation vs predicted exposure; format: in vivo, human; conditions: logistic regression, standard dosing assumed
Procedure: as §1

[4] = serum, dabrafenib dose of 150 mg q12h
[5] = standard dose, BMI (kg/m2) < 30
[6] = standard dose, BMI (kg/m2) >= 30
[7] = standard dose, P-gp inducer: no
[8] = standard dose, P-gp inducer: yes
[9] = standard dose, P-gp inhibitor: no
[10] = standard dose, P-gp inhibitor: yes
[11] = standard dose, age above 65: no
[12] = standard dose, age above 65: yes
[13] = standard dose, moderate CYP2C8 inhibitor: no
[14] = standard dose, moderate CYP2C8 inhibitor: yes

With `CC(C)(CO)c1nc(-c2cccc(NS(=O)(=O)c3c(F)cccc3F)c2F)c(-c2ccnc(N)n2)s1` [hydroxy-dabrafenib] the “median of the average predicted trough concentrations” value [1] was 84.5 ng/mL, the “median of the average predicted AUCτ” value ([1]; average over all observations per patient) was 6040 ng·h/mL and the “median of individual mean trough concentration” value [2, 4] was 76.0 ng/mL. The “range of individual mean trough concentration” value [2, 4] was 37.2 to 171.0 ng/mL, the “effect of co-medication with at least one P-gp inducer on individual mean trough concentrations” value ([2]; serum, standard dose) was “no effect” and the “serum Cmin mean” value [2, 5] was 73.6 ng/mL. For the same molecule, the “serum Cmin median” value [2, 5] was 72.9 ng/mL, the “serum Cmin mean” value [2, 6] was 97.6 ng/mL and the “serum Cmin median” value [2, 6] was 68.3 ng/mL. The “serum Cmin mean” value [2, 7] was 101 ng/mL, the “serum Cmin median” value [2, 7] was 90.9 ng/mL and the “serum Cmin mean” value [2, 8] was 62.1 ng/mL. The “serum Cmin median” value [2, 8] was 56.6 ng/mL, the “serum Cmin mean” value [2, 9] was 100 ng/mL and the “serum Cmin median” value [2, 9] was 78 ng/mL. For the same molecule, the “serum Cmin mean” value [2, 10] was 77.3 ng/mL, the “serum Cmin median” value [2, 10] was 70.2 ng/mL and the “serum Cmin mean” value ([2]; standard dose, PPI: no) was 93.1 ng/mL. The “serum Cmin median” value ([2]; standard dose, PPI: no) was 78 ng/mL, the “serum Cmin mean” value ([2]; standard dose, PPI: yes) was 53.7 ng/mL and the “serum Cmin median” value ([2]; standard dose, PPI: yes) was 53.7 ng/mL. The “serum Cmin mean” value [2, 11] was 92.7 ng/mL, the “serum Cmin median” value [2, 11] was 77.6 ng/mL and the “serum Cmin mean” value [2, 12] was 66.2 ng/mL. For the same molecule, the “serum Cmin median” value [2, 12] was 55.6 ng/mL, the “serum Cmin mean” value [2, 13] was 89.4 ng/mL and the “serum Cmin median” value [2, 13] was 78 ng/mL. The “serum Cmin mean” value [2, 14] was 86.3 ng/mL, the “serum Cmin median” value [2, 14] was 76.6 ng/mL and the “serum Cmin mean” value ([2]; standard dose, sex female) was 86 ng/mL. The “serum Cmin median” value ([2]; standard dose, sex female) was 68.3 ng/mL, the “serum Cmin mean” value ([2]; standard dose, sex male) was 77.3 ng/mL and the “serum Cmin median” value ([2]; standard dose, sex male) was 72.9 ng/mL. For the same molecule, the “relationship between dose reduction or discontinuation due to AE and predicted serum trough concentrations or AUCτ” value [3] was “no significant relationships”.
